# Measurements as given in ChEMBL document CHEMBL1201862, “PubChem BioAssay data set” (2004).
#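 Exposure lasted 48 hours, with cells grown in 96-well plates and compounds tested at five concentrations. Abbreviation: GI50, concentration required for 50% inhibition of growth.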 Active and inactive are the calls of the source. No stated cut-off is given here; in the data, active = GI50 up to about 1.1 µM and inactive = higher.
# Legend:
# Assay in all cases: growth of human tumour cells (NCI), 48 h
# LXFL 529 = test system: LXFL 529
# NCI-H460 = test system: NCI-H460
# EKVX = test system: EKVX
# U-251 = test system: U-251
# SNB-19 = test system: SNB-19
# DMS-114 = test system: DMS-114
# IGROV-1 = test system: IGROV-1
# UACC-257 = test system: UACC-257
# Malme-3M = test system: Malme-3M
# LOX IMVI = test system: LOX IMVI
# TK-10 = test system: TK-10
# NCI-H226 = test system: NCI-H226
# HOP-92 = test system: HOP-92
# UACC-62 = test system: UACC-62
# SN12C = test system: SN12C
# HCT-15 = test system: HCT-15
# HT-29 = test system: HT-29
# SK-MEL-28 = test system: SK-MEL-28
# 786-0 = test system: 786-0
# M14 = test system: M14
# SNB-78 = test system: SNB-78
# SW-620 = test system: SW-620
# OVCAR-8 = test system: OVCAR-8
# CCRF-CEM = test system: CCRF-CEM
# SNB-75 = test system: SNB-75
# KM-20L2 = test system: KM-20L2
# A549 = test system: A549
# CAKI-1 = test system: CAKI-1
# RPMI-8226 = test system: RPMI-8226
# M19-MEL = test system: M19-MEL
# DLD-1 = test system: DLD-1
# OVCAR-4 = test system: OVCAR-4
# HCC 2998 = test system: HCC 2998
# ACHN = test system: ACHN
# SK-MEL-2 = test system: SK-MEL-2
# SK-OV-3 = test system: SK-OV-3
# NCI-H23 = test system: NCI-H23
# HL-60 = test system: HL-60
# SR = test system: SR
# SF-268 = test system: SF-268
# MOLT-4 = test system: MOLT-4
# RXF 393 = test system: RXF 393
# OVCAR-3 = test system: OVCAR-3
# KM12 = test system: KM12
# SF-539 = test system: SF-539
# UO-31 = test system: UO-31
# XF498 = test system: XF498
# K562 = test system: K562
# SK-MEL-5 = test system: SK-MEL-5
# NCI-H522 = test system: NCI-H522
# HOP-18 = test system: HOP-18
# OVCAR-5 = test system: OVCAR-5
# SF-295 = test system: SF-295
structure (smiles),measurement,setting,value
Clc1ccc(C(c2ccc(Cl)cc2)c2ccccn2)cc1,GI50,LXFL 529,17.7 µM (inactive)
same,GI50,NCI-H460,17.1 µM (inactive)
same,GI50,EKVX,23 µM (inactive)
same,GI50,U-251,17 µM (inactive)
same,GI50,SNB-19,22.3 µM (inactive)
same,GI50,DMS-114,28.4 µM (inactive)
same,GI50,IGROV-1,37.8 µM (inactive)
same,GI50,UACC-257,18.8 µM (inactive)
same,GI50,Malme-3M,19.1 µM (inactive)
same,GI50,LOX IMVI,16.7 µM (inactive)
same,GI50,TK-10,19.7 µM (inactive)
same,GI50,NCI-H226,17.1 µM (inactive)
same,GI50,HOP-92,15.8 µM (inactive)
same,GI50,UACC-62,16.4 µM (inactive)
same,GI50,SN12C,17.3 µM (inactive)
same,GI50,HCT-15,17.3 µM
same,GI50,HT-29,14.9 µM (inactive)
same,GI50,SK-MEL-28,> 10 µM (inactive)
same,GI50,786-0,16.7 µM (inactive)
same,GI50,M14,21.1 µM (inactive)
same,GI50,SNB-78,33.8 µM (inactive)
same,GI50,SW-620,20.1 µM (inactive)
same,GI50,OVCAR-8,16.7 µM (inactive)
same,GI50,CCRF-CEM,21.5 µM (inactive)
same,GI50,SNB-75,44.9 µM (inactive)
same,GI50,KM-20L2,14.4 µM (inactive)
same,GI50,A549,18.5 µM (inactive)
same,GI50,CAKI-1,23.2 µM (inactive)
same,GI50,RPMI-8226,28.8 µM (inactive)
same,GI50,M19-MEL,31.4 µM (inactive)
same,GI50,DLD-1,20.8 µM (inactive)
same,GI50,OVCAR-4,27.4 µM (inactive)
same,GI50,HCC 2998,15.9 µM (inactive)
same,GI50,ACHN,18.1 µM (inactive)
same,GI50,SK-MEL-2,19 µM (inactive)
same,GI50,SK-OV-3,34.6 µM (inactive)
same,GI50,NCI-H23,31.6 µM (inactive)
same,GI50,HL-60,20.6 µM (inactive)
same,GI50,SR,20.8 µM (inactive)
same,GI50,SF-268,23.5 µM (inactive)
same,GI50,MOLT-4,21.4 µM (inactive)
same,GI50,RXF 393,14.5 µM (inactive)
same,GI50,OVCAR-3,> 10 µM (inactive)
same,GI50,KM12,19.1 µM (inactive)
same,GI50,SF-539,18.7 µM (inactive)
same,GI50,UO-31,16.5 µM (inactive)
same,GI50,XF498,18.2 µM (inactive)
same,GI50,K562,21.6 µM (inactive)
same,GI50,SK-MEL-5,17.1 µM (inactive)
same,GI50,NCI-H522,21.4 µM (inactive)
same,GI50,HOP-18,24.8 µM (inactive)
same,GI50,OVCAR-5,14.9 µM (inactive)
same,GI50,SF-295,19.1 µM (inactive)
